PMC8383264, “Structural Characterization of the Reaction and Substrate Specificity Mechanisms of Pathogenic Fungal Acetyl-CoA Synthetases” (ACS Chemical Biology, 2021)

What was measured:
C. immitis Acs1 = C. immitis Acs1 (Coccidioides immitis, UniProt J3KJC6); settings: 37 °C
C. posadasii Acs1 = C. posadasii Acs1 (Coccidioides posadasii, UniProt C5PGB4); settings: 37 °C
CnAcs1 = CnAcs1 (Cryptococcus neoformans, UniProt J9VFT1); assay: Coupled continuous pyrophosphate detection assay (EnzChek) of ACS activity
CnAcs1, sequence (J9VFT1 entry or part of it): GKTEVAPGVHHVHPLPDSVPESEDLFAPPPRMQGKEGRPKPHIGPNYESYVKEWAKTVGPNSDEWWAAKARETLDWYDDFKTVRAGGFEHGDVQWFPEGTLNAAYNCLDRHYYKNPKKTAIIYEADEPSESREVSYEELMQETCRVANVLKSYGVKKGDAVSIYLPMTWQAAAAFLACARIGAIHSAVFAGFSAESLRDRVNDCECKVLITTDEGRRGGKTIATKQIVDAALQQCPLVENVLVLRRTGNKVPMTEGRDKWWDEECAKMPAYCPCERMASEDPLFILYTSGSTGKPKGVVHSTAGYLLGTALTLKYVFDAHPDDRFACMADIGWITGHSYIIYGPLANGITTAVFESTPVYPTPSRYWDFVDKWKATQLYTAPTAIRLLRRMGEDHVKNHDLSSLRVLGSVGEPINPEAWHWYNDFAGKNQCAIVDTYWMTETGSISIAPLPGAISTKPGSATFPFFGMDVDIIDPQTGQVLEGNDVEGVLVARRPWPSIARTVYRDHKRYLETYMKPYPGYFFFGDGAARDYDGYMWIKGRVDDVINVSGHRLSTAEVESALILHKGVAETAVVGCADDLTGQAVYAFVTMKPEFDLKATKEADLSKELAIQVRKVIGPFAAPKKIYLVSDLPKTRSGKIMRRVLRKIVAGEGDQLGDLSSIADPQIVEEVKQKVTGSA

A. fumigatus Acs1 = molecular target: T1, A. fumigatus Acs1 (Aspergillus fumigatus, UniProt Q4WQ02); assay: as above; settings: substrate Km; other substrates in excess; 37 °C; ±S.E.M.
T1 sequence (Q4WQ02 2-670): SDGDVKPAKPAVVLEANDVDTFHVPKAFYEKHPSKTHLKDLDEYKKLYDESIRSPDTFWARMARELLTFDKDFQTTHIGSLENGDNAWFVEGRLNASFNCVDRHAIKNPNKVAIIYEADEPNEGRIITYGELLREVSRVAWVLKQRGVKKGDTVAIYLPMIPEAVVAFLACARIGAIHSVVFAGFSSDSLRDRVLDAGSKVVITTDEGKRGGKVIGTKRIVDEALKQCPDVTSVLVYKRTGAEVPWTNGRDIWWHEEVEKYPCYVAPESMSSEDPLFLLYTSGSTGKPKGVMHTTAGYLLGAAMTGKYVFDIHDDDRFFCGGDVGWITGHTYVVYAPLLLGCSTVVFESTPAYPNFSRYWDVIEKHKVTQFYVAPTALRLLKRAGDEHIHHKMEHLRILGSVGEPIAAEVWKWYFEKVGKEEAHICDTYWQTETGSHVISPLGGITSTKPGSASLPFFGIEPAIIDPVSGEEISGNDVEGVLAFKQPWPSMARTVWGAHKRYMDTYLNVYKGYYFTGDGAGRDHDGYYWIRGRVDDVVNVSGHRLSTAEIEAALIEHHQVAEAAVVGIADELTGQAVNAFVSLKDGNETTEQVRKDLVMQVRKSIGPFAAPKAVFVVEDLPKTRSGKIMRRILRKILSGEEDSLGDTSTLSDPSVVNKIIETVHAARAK

C. albicans Acs1 = C. albicans Acs1 (Candida albicans, UniProt Q8NJN3); assay: as above; settings: 37 °C
C. albicans Acs1, sequence (Q8NJN3 2-671 limits assumed): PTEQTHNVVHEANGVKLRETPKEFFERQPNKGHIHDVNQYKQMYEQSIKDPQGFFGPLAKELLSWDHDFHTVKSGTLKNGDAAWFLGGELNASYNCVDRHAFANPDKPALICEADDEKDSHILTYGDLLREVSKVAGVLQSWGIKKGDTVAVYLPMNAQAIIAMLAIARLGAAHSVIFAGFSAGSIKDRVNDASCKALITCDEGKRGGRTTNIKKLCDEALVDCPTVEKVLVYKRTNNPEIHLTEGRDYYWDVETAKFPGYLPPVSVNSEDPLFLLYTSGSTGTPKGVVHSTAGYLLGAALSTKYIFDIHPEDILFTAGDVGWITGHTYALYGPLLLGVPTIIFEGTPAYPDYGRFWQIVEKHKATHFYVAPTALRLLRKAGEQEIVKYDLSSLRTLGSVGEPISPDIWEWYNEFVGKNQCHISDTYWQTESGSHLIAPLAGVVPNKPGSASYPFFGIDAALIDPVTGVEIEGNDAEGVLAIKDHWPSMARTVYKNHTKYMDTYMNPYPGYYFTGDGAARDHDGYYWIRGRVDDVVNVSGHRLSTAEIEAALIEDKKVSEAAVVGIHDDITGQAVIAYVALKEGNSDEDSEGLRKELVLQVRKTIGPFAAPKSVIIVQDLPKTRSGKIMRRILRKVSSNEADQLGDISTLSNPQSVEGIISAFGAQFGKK

S. cerevisiae Acs1 = molecular target: T2, S. cerevisiae Acs1 (Saccharomyces cerevisiae, UniProt Q01574); assay: as above; settings: 37 °C
T2 sequence (Q01574 1-713): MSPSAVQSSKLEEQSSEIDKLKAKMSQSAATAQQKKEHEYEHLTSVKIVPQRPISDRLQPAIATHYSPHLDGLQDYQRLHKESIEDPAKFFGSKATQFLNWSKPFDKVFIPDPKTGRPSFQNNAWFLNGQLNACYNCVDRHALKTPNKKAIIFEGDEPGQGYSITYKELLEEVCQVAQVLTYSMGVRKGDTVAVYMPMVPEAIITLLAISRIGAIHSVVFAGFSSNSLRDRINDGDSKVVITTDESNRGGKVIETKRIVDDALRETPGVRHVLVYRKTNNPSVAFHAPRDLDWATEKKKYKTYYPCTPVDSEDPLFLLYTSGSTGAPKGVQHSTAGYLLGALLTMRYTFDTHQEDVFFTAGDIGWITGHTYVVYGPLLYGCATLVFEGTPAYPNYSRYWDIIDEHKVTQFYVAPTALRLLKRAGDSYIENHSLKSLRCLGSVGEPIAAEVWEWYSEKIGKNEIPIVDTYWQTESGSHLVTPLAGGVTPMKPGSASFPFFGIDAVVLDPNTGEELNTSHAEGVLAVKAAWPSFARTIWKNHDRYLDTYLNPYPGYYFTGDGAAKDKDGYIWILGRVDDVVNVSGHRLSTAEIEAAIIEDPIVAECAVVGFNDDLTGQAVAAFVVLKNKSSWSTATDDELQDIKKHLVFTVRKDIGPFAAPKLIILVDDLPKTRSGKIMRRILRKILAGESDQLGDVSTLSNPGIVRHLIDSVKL

C. posadasii Acs1, sequence (C5PGB4 2-691 limits assumed): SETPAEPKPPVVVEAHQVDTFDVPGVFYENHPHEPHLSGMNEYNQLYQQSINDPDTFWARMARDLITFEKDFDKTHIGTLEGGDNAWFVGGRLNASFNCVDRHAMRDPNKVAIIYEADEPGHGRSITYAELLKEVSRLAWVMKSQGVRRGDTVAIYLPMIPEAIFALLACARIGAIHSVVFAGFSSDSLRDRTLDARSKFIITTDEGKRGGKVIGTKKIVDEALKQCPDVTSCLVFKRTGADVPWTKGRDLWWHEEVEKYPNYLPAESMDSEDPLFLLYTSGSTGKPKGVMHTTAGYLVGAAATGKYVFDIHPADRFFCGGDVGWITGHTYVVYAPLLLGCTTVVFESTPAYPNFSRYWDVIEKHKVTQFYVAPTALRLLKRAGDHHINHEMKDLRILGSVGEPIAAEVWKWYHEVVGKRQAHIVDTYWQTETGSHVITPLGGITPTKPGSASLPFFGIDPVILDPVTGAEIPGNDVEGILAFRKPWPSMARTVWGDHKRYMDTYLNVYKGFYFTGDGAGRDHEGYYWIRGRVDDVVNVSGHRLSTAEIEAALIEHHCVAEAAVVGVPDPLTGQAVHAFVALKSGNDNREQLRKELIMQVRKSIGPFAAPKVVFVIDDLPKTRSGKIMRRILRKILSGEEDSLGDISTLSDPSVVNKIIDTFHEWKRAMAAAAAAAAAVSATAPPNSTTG
C. immitis Acs1, sequence (J3KJC6 2-691 limits assumed): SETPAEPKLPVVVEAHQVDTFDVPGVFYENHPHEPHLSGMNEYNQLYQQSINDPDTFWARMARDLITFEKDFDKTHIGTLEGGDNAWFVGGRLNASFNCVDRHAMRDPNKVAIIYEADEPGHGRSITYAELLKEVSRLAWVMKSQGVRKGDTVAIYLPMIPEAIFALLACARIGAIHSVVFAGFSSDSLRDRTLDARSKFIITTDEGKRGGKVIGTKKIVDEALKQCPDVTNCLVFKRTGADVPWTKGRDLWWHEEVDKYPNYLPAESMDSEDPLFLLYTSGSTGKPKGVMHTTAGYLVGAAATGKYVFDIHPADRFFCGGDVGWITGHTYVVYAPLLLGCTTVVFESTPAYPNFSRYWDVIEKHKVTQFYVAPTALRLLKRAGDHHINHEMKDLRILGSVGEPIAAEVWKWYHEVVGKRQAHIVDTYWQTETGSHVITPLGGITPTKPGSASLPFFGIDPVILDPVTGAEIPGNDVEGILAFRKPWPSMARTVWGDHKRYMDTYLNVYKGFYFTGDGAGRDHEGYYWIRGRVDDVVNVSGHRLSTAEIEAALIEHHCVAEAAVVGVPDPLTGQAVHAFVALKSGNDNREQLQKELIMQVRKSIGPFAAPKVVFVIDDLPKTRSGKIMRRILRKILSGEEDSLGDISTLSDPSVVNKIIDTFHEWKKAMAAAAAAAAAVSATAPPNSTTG

CC(=O)O [acetate, reference compound]
Km (C. immitis Acs1): 32 ± 5 µM | Km (C. posadasii Acs1): 27 ± 2 µM | utilization as substrate for CnAcs1 (CnAcs1; alternative acid substrates): optimum substrate | calculated binding energy ΔG (CnAcs1; calculated for substrate binding): -5.5 kcal/mol | Km (CnAcs1; substrate Km, other substrates in excess (ATP 2.5 mM, CoA 1 mM, sodium acetate 0.5 mM), 37 °C, ±S.E.M.): 130 ± 40 µM | Km (A. fumigatus Acs1): 18 ± 2 µM | Km (C. albicans Acs1): 79 ± 7 µM | Km (S. cerevisiae Acs1): 63 ± 13 µM
